Experiments:
[1] = target: BenM (Acinetobacter baylyi, UniProt O68014); settings: benzoic acid alone; cited from earlier work
[2] = tested on: luxCDABE gene fusions; settings: cited from earlier work
[3] = tested on: yhcRQP-luxCDABE gene fusion; assay: Bioluminescence response in yhcS- strain DPD2437 (yhcS::TN<Kan>); format: cell-based, E. coli; settings: thirty minutes, LB pH 7.0
Excerpt: (§1) A derivative of E. coli strain MG1655 (obtained from Prof. Douglas Berg, Washington University School of Medicine, St. Louis, […].) with the yhcS::TN<Kan> mutation was made by P1clr100Cm mediated transduction using phage grown on strain DPD2410 as a donor and selection for kanamycin resistance. The presence of the yhcS::TN<Kan> mutation in one of the resultant transductants, named DPD2433, was confirmed by PCR amplification. Plasmid pDEW655 was moved to E. coli strains MG1655 and DPD2433 by transformation, selecting for Ampicillin resistance to generate strains DPD2436 and DPD2437, respectively. The bioluminescent response of these two strains to pHBA was tested. Aliquots (50 μl) of actively growing cultures at 37° C. in LB medium that had been previously diluted, and from overnight cultures in LB medium with 150 μg/ml Ampicillin were added to 50 μl of LB medium at pH 7.0 containing pHBA as the sodium salt form. Several concentrations of pHBA were tested.

[4] = tested on: E. coli strain DE112; assay: Growth inhibition by pHBA treatment; format: cell-based; settings: Escherichia coli, 25 mM pHBA (acid form), Vogel-Bonner minimal medium with glucose
Experimental: (§2) The alterations in the E. coli gene expression profile upon exposure to pHBA were examined using DNA microarray technology. E. coli strain DE112 (Van Dyk et al. Appl. Environ. Microbiol. 60:1414-1420 (1994)) was grown in Vogel-Bonner minimal medium with glucose as a carbon source to an OD600 of 0.2. At this point the culture was split in two flasks and pHBA in the acid form was added to one flask from a stock solution in ethanol to achieve a final pHBA concentration of 25 mM. The pH of the medium in the flask with pHBA was lowered by an unmeasured amount. An equivalent volume of ethanol without pHBA was added to the other flask. Approximately 58% growth inhibition resulted from the pHBA treatment under these conditions. Cells were harvested from the control and treated flasks at 30 and 60 minutes after pHBA addition. RNA isolation, array hybridization, and data analysis were done as previously described (Wei et al, J. Bacteriol. 183:545-556 (2001), Smulski et al. J. Bacteriol. 183:3353-3364 (2001)). […] These three genes are predicted to be transcribed as an operon. The reproducible observed co-regulation in response to pHBA treatment is consistent with this prediction. Thus, these three genes will be referred to as the yhcRQP operon.

[5] = tested on: yhcRQP-luxCDABE gene fusion; assay: Bioluminescence response in yhcS+ strain DPD2436 (MG1655 host); format: cell-based, E. coli; settings: thirty minutes, LB pH 7.0
Excerpt: as §1, with “The presence of the yhcS::TN<Kan> mutation in one of the resultant transductants, named DPD2433, was confirmed by PCR amplification.” left out
Further characterization of the signals that trigger activation of YhcS, was done using the yhcRQP-luxCDABE gene fusion containing E. coli strains DPD2411 or DPD2436.

[6] = tested on: yhcQ; assay: DNA microarray gene expression profiling of pHBA-treated E. coli; format: cell-based; settings: 25 mM pHBA, 60 minutes
Experimental: as §2

[7] = tested on: yhcR; assay: as above; format: cell-based; settings: 25 mM pHBA, 60 minutes
Experimental: as §2

[8] = tested on: yhcP; assay: as above; format: cell-based; settings: 25 mM pHBA, 60 minutes
Experimental: as §2

[9] = tested on: yhcRQP-luxCDABE gene fusion; assay: Bioluminescence kinetics in yhcS+ strain DPD2413 (DH5alphaE host), FIG. 1; format: cell-based, E. coli; settings: 5 mM pHBA acid form, yhcS+ strain DPD2413, LB medium
Experimental: (§3) E. coli strain DPD2410 is the DH5αE derived strain containing the yhcS::TN<Kan> mutation. Strains DH5αE and DPD2410 were transformed with pDEW655 to generate E. coli strains DPD2413 and DPD2415, respectively. […] The plate was incubated for 90 minutes at 37° C.; then 50 μl of the cultures was added to 50 μl of LB medium or to 50 μl of LB medium containing pHBA in the acid form, which had been added from a stock solution in ethanol. The final concentration of pHBA was 5 mM and the final concentration of ethanol was 0.25%. The pH of the medium with pHBA was lowered by an unmeasured amount. The bioluminescence was quantitated with a Luminoskan Ascent microplate luminometer (Thermo Labsystems, Franklin, Mass.). The results of this study are presented in FIG. 1, which is a plot of the bioluminescence intensity in relative light units (RLU) versus time in minutes. In the Figure, addition of pHBA was made at time zero. Solid lines are the response in the yhcS^+ strain, DPD2413. Dotted lines are the response in the yhcS^− strain, DPD2415. Circles represent pHBA treated cultures and triangles represent untreated cultures.

[10] = tested on: yhcRQP-luxCDABE gene fusion; assay: Bioluminescence kinetics in yhcS- strain DPD2415 (yhcS::TN<Kan>), FIG. 1; format: cell-based, E. coli; settings: 5 mM pHBA acid form, yhcS::TN<Kan> strain DPD2415, LB medium
Experimental: as §3

BenM, sequence (O68014 whole entry, the tested form may be a part): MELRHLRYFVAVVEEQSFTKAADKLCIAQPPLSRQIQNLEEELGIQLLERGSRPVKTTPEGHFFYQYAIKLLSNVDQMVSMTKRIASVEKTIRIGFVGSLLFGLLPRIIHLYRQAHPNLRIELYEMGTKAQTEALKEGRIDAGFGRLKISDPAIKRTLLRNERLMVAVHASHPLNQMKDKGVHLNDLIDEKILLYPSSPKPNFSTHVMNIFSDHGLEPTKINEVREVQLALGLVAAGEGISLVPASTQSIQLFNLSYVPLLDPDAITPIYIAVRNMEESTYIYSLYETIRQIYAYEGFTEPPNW

O=C(O)c1ccccc1 [Benzoic acid, benzoic acid]
induction of BenM activity [1]: minimal, if any, induction

CCn1cc(C(=O)O)c(=O)c2ccc(C)nc21 [nalidixic acid]
up-regulation of genes in luxCDABE gene fusion collection [2]: selective up-regulation of ten genes

O=C(O)c1ccc(O)cc1 [pHBA, para-hydroxybenzoic acid]
RLU yhcS- ([3]; 1.6 mM pHBA sodium salt): 1.02 RLU | Ratio treated/control yhcS- ([3]; 1.6 mM pHBA sodium salt): 1.25 | RLU yhcS- ([3]; 3.1 mM pHBA sodium salt): 1.16 RLU | Ratio treated/control yhcS- ([3]; 3.1 mM pHBA sodium salt): 1.42 | RLU yhcS- ([3]; 6.2 mM pHBA sodium salt): 1.42 RLU | Ratio treated/control yhcS- ([3]; 6.2 mM pHBA sodium salt): 1.75 | RLU yhcS- ([3]; 12.5 mM pHBA sodium salt): 1.82 RLU | Ratio treated/control yhcS- ([3]; 12.5 mM pHBA sodium salt): 2.23 | RLU yhcS- ([3]; 25 mM pHBA sodium salt): 1.59 RLU | Ratio treated/control yhcS- ([3]; 25 mM pHBA sodium salt): 1.95 | RLU yhcS- ([3]; 50 mM pHBA sodium salt): 0.614 RLU | Ratio treated/control yhcS- ([3]; 50 mM pHBA sodium salt): 0.753 | RLU yhcS- ([3]; 100 mM pHBA sodium salt): 0.045 RLU | Ratio treated/control yhcS- ([3]; 100 mM pHBA sodium salt): 0.055 | inhibition at 25000 µM [4]: ~58% | RLU yhcS+ ([5]; 1.6 mM pHBA sodium salt): 6.72 RLU | Ratio treated/control yhcS+ ([5]; 1.6 mM pHBA sodium salt): 10.6 | RLU yhcS+ ([5]; 3.1 mM pHBA sodium salt): 10.2 RLU | Ratio treated/control yhcS+ ([5]; 3.1 mM pHBA sodium salt): 16.2 | RLU yhcS+ ([5]; 6.2 mM pHBA sodium salt): 16.2 RLU | Ratio treated/control yhcS+ ([5]; 6.2 mM pHBA sodium salt): 25.7 | RLU yhcS+ ([5]; 12.5 mM pHBA sodium salt): 30.8 RLU | Ratio treated/control yhcS+ ([5]; 12.5 mM pHBA sodium salt): 48.8 | RLU yhcS+ ([5]; 25 mM pHBA sodium salt): 66.6 RLU | Ratio treated/control yhcS+ ([5]; 25 mM pHBA sodium salt): 106 | RLU yhcS+ ([5]; 50 mM pHBA sodium salt): 91.7 RLU | Ratio treated/control yhcS+ ([5]; 50 mM pHBA sodium salt): 145 | RLU yhcS+ ([5]; 100 mM pHBA sodium salt): 0.437 RLU | Ratio treated/control yhcS+ ([5]; 100 mM pHBA sodium salt): 0.693 | Ratio (treated/untreated) ([6]; experiment 1): 4.09 | Signal in pHBA treated ([6]; experiment 1): 1.61 | Ratio (treated/untreated) ([6]; experiment 2): 22.3 | Signal in pHBA treated ([6]; experiment 2): 6.02 | Ratio (treated/untreated) ([7]; experiment 1): 72.3 | Signal in pHBA treated ([7]; experiment 1): 1.37 | Ratio (treated/untreated) ([7]; experiment 2): 10.5 | Signal in pHBA treated ([7]; experiment 2): 7.18 | Ratio (treated/untreated) ([8]; experiment 1): 6.45 | Signal in pHBA treated ([8]; experiment 1): 7.52 | Ratio (treated/untreated) ([8]; experiment 2): 12.1 | Signal in pHBA treated ([8]; experiment 2): 12.0 | upregulation of yhcRQP-luxCDABE expression (in words, FIG. 1) [9]: rapid and dramatic upregulation | upregulation of yhcRQP-luxCDABE expression (in words, FIG. 1) [10]: essentially abolished
